Measured values as given in article PMC4157654, “Orthogonal functionalisation of α-helix mimetics” (Organic & Biomolecular Chemistry, 2014).

How the values were obtained:
Mcl-1/NOXA-B interaction = target: T1, Mcl-1/NOXA-B interaction (Homo sapiens, UniProt Q07820); assay: Fluorescence anisotropy competition assay, Mcl-1/NOXA-B; format: binding; details: Mcl-1 150 nM, FITC-NOXA-B 50 nM, phosphate buffer pH 7.5
T1 construct: The pet28a His-SUMO Mcl-1 (172-327) construct was over-expressed; His (N, cleaved yes); SUMO (N, cleaved yes); made in house; host or cells: E. coli Rosetta 2
Method: Determination of the binding of FITC-NOXA-B to Mcl-1
The procedure followed was adapted from our previous paper on O-alkylated aromatic oligoamides.1 […]
Briefly: Mcl-1 was serially diluted (446 pM – 5 μM) into a solution of FITC-NOXA-B (25 nM) (40 […]
mM Sodium phosphate buffer pH 7.54, 200 mM NaCl, 0.02 mg/ml of bovine serum albumin) – the […]
total volume of each well was 100 μL, the plates were allowed to incubate at room temperature for 45 […]
minutes. Each experiment was run in triplicate and the fluorescence anisotropy measured using a […]
Perkin Elmer EnVisionTM 2103 MultiLabel plate reader, with excitation at 480 nm and emission at […]
535 nm ([…] bandwidth) and the intensity (Eq. 1) was calculated for each point. This was used to […]
calculate anisotropy (Eq. 2) and plotted to a sigmoidal fit in Origin 7 to determine the minimum and […]
maximum anisotropies (rmin and rmax). Using equation 3, the data for the anisotropy was converted to […]
fraction bound and multiplied by the FITC-NOXA-B concentration then fitted in origin 7 (Eq. 4) to […]
From a plot of intensity (Eq. 1) against […]
concentration of protein λ was calculated to be 1. […]
{(k + x + [FL] - {(k + x + [FL]2 - 4x[FL]} r = anisotropy, I = total intensity, P = perpendicular intensity, S = parallel intensity, Lb = fraction ligand bound, λ = Ibound/Iunbound = 1, [FL] = concentration of fluorescent ligand, k1 = Kd , y = Lb* FITC- […]
NOXA-B and x = [added titrant], G is an instrument factor set to 1.
Figure S4 - Fluorescence anisotropy titration assays for the addition of FITC-NOXA-B to a constant […]
concentration of Mcl-1. Performed in phosphate buffer pH 7.5, 200 mM NaCl, 0.02 mg/ml BSA.
In order to set up displacement assay conditions Mcl-1 and FITC-labelled NOXA-B concentrations […]
were fixed and the tracer peptide was displaced with unlabelled NOXA-B.
Figure S5 – Fluorescence anisotropy competition assay testing the inhibition of unlabelled NOXA-B […]
against the Mcl-1/NOXA-B interaction. Performed in phosphate buffer pH 7.5, 200 mM NaCl, 0.02 […]
mg/ml BSA. Mcl-1 is fixed as 150 nM and FITC-NOXA-B is at a concentration of 50 nM. […]
Figure S7 – Fluorescence anisotropy competition assay testing the inhibition of the trimers against the Mcl-1/NOXA-B interaction; unfunctionalised trimer 1 and acid, ethylene glycol and coumarin- […]
BSA. Mcl-1 is fixed as 150 nM and FITC-NOXA-B is at a concentration of 50 nM.

p53/hDM2 interaction = target: T2, p53/hDM2 interaction (Homo sapiens, UniProt Q00987); assay: Fluorescence anisotropy competition assay, p53/hDM2; format: binding; details: hDM2 154 nM, FITC-p53 54.5 nM, phosphate buffer pH 7.5, 200 mM NaCl, 0.02 mg/ml BSA
T2 construct: hDM2 17-126 was diluted into buffer; made in house
Method: The ability of the trimers to inhibit the p53/hDM2 interaction was then investigated using a fluorescence anisotropy competition assay (Fig. 3a). Briefly, a fluorescein-labelled p53 peptide is initially bound to hDM2 and displaced by increasing concentrations of inhibitor leading to a measurable decrease in anisotropy from which IC50 values can be determined, Table 1.
(§1) Fig. 3 Fluorescence anisotropy binding assays in phosphate buffer pH 7.5, 200 mM NaCl, 0.02 mg ml^–1 BSA. (a) p53/hDM2 competition assay hDM2 is fixed as 154 nM and FITC-p53 is at a concentration of 54.5 nM. (b) Direct binding assay of trimer 5 binding to hDM2 or Mcl-1. Compound 5 is fixed at 50 nM.
Figure S6 – Fluorescence anisotropy competition assay testing the inhibition of the trimers against the p53/hDM2 interaction; unfunctionalised trimer 1 and acid, ethylene glycol and coumarin-functionalised trimers 2, 3 and 4. Performed in phosphate buffer pH 7.5, 200 mM NaCl, 0.02 mg/ml BSA. h DM2 is fixed as 154 nM and FITC-p53 is at a concentration of 54.5 nM. […]

Bcl-xL/BAK interaction = target: T3, Bcl-xL/BAK interaction (Homo sapiens, UniProt Q07817); assay: Fluorescence anisotropy competition assay, Bcl-xL/BAK; format: binding; details: Bcl-xL 131 nM, BODIPY-BAK 43 nM, phosphate buffer pH 7.5
T3 construct: made in house
Method: Figure S8 – Fluorescence anisotropy competition assay testing the inhibition of the trimers against the Bcl-x L/BAK interaction; unfunctionalised trimer 1 and acid, ethylene glycol and coumarin-functionalised trimers 2, 3 and 4. Performed in phosphate buffer pH 7.5, 200 mM NaCl, 0.02 mg/ml
BSA. Bcl-x L is fixed as 131 nM and BODIPY-BAK is at a concentration of 43 nM.
The observed increase in anisotropy is likely to be the result of aggregation of the trimer to the BAK […]
tracer and Bcl-x L complex. […]
In all experiments the G factor, or ratio between the efficiency of the S(ame) and P(erpendicular) channels was set to 1. […]

hDM2 [1] = target: T4, hDM2 (Homo sapiens, UniProt Q00987); assay: Fluorescence anisotropy direct binding assay, hDM2; details: trimer fixed at 50 nM, read-out: Kd obtained through direct titration, hDM2
T4 construct: hDM2 17-126 was diluted into buffer; made in house
Method: as §1
The fluorescently tagged trimers 4 and 5 were designed for use in direct binding experiments. We observed that upon ‘click’ reaction, the fluorescence of the coumarin group in trimer 4 was quenched (Fig. S14 ^†). This trimer was therefore tested in the fluorescence anisotropy competition assays as described above (Fig. S7 and S8 ^†). […] Direct binding experiments were performed using both fluorescence anisotropy (Fig. 3b) and microscale thermophoresis[52] (Fig. S12 ^†). […] The same fluorescence anisotropy experiment was then carried out for Mcl-1 and Bcl-xL. […]
Figure S8 – Fluorescence anisotropy competition assay testing the inhibition of the trimers against the Bcl-x L/BAK interaction; unfunctionalised trimer 1 and acid, ethylene glycol and coumarin-functionalised trimers 2, 3 and 4. […]
Direct Binding Assay Development hDM2 17-126 was diluted into buffer across the 24 wells from 400 μM to 36 nM. […] Ligand bound was calculated from Eq. 3 using λ =
2.06. K d was calculated from Eq. 4. […]

Mcl-1 = target: T5, Mcl-1 (Homo sapiens, UniProt Q07820); assay: Fluorescence anisotropy direct binding assay, Mcl-1; details: trimer fixed at 50 nM, read-out: Kd obtained through direct titration, Mcl-1
T5 construct: The pet28a His-SUMO Mcl-1 (172-327) construct was over-expressed; His (N, cleaved yes); SUMO (N, cleaved yes); made in house; host or cells: E. coli Rosetta 2
Method: as §1
(§2) The fluorescently tagged trimers 4 and 5 were designed for use in direct binding experiments. We observed that upon ‘click’ reaction, the fluorescence of the coumarin group in trimer 4 was quenched (Fig. S14 ^†). This trimer was therefore tested in the fluorescence anisotropy competition assays as described above (Fig. S7 and S8 ^†). […] Direct binding experiments were performed using both fluorescence anisotropy (Fig. 3b) and microscale thermophoresis[52] (Fig. S12 ^†). […] The same fluorescence anisotropy experiment was then carried out for Mcl-1 and Bcl-xL. […] The absence of selectivity between hDM2 and Mcl-1 in this instance may arise as a consequence of non-specific interactions imparted by the fluorescein group – we note that K d is lower for 5 than the IC50's observed for both 2 and 3 which would support this hypothesis.
Figure S9 - Change of intensity during addition of hDM2 used to calculate λ.
Mcl-1172-327 was diluted into buffer across the 24 wells from 200 μM to 18 nM. […] Ligand bound was calculated from Eq. 3 using λ =
2.31. K d was calculated from Eq. 4. […]

hDM2 [2] = target: T4, hDM2; assay: Microscale thermophoresis direct binding to hDM2; details: trimer fixed at 50 nM, phosphate buffer pH 7.5
Method: as §2
Thermophoresis Direct Binding to h DM2
Figure S12 – Direct binding of Compound 5 to hDM2 measured using thermophoresis at a fixed […]
concentration of 5 of 50 nM. […] Performed in phosphate buffer pH 7.5, 200 mM NaCl, […]
The larger errors at lower protein concentration are possibly the result of non-specific binding of the fluorescent trimer to the thermophoresis capillaries.
Fluorescence and Absorbance Characterisation of Trimers 4 and 5 […]
(1 picture or pasted object on this page, not shown here)

Bcl-xL = target: T6, Bcl-xL (Homo sapiens, UniProt Q07817); assay: Fluorescence anisotropy direct binding assay, Bcl-xL; details: trimer fixed at 50 nM
T6 construct: made in house
Method: as §2
Figure S10 - Change of intensity during addition of Mcl-1 used to calculate λ.
Anisotropy Direct Binding to Bcl-x L
Figure S11 – Anisotropy direct binding of Compound 5 to Bcl-x L at a fixed concentration of 5 of 50
nM. Performed in phosphate buffer pH 7.5, 200 mM NaCl, 0.02 mg/ml BSA. […]

| Structure (SMILES) | IC50 (Mcl-1/NOXA-B interaction) | IC50 (p53/hDM2 interaction) | IC50 Bcl-xL/BAK (Bcl-xL/BAK interaction) | Kd (hDM2 [1]) | Kd (Mcl-1) | Kd (hDM2 [2]) | Direct binding to Bcl-xL (Bcl-xL) |
| --- | --- | --- | --- | --- | --- | --- | --- |
| CC(C)CN(C(=O)c1ccc(N(Cc2cccc3ccccc23)C(=O)c2ccc(NCc3ccccc3)cc2)c(OCc2cn(CCOCCOCCOCCO)nn2)c1)c1ccc(C(=O)NCC(=O)O)cc1 [Trimer 3] | > 70 µM | 42 ± 6 µM | No inhibition |  |  |  |  |
| CC(C)CN(C(=O)c1ccc(N(Cc2cccc3ccccc23)C(=O)c2ccc(NCc3ccccc3)cc2)cc1)c1ccc(C(=O)NCC(=O)O)cc1 [Trimer 1] | > 70 µM | 12.3 ± 0.4 µM | No inhibition |  |  |  |  |
| CC(C)CN(C(=O)c1ccc(N(Cc2cccc3ccccc23)C(=O)c2ccc(NCc3ccccc3)cc2)c(OCc2cn(CC(=O)O)nn2)c1)c1ccc(C(=O)NCC(=O)O)cc1 [Trimer 2] | > 70 µM | 40 ± 5 µM | No inhibition |  |  |  |  |
| CC(C)CN(C(=O)c1ccc(N(Cc2cccc3ccccc23)C(=O)c2ccc(NCc3ccccc3)cc2)c(OCc2cn(CCCNC(=S)Nc3ccc(-c4c5ccc(=O)cc-5oc5cc(O)ccc45)c(C(=O)O)c3)nn2)c1)c1ccc(C(=O)NCC(=O)O)cc1 [Trimer 5] |  |  |  | 20 ± 6 µM | 13 ± 4 µM | 11 ± 2 µM | no binding was observed |
| CC(C)CN(C(=O)c1ccc(N(Cc2cccc3ccccc23)C(=O)c2ccc(NCc3ccccc3)cc2)c(OCc2cn(CCCNC(=O)c3cc4ccccc4oc3=O)nn2)c1)c1ccc(C(=O)NCC(=O)O)cc1 [Trimer 4] | > 70 µM | 20.3 ± 0.3 µM | No inhibition |  |  |  |  |
